Measured values taken from the NIST ThermoML archive (doi:10.1016/j.jct.2011.08.008).

Assay: xn = mol fraction of the nth substance listed
Settings: 101 kPa, Liquid, Vibrating tube method

CCCCCCCC[n+]1ccn(C)c1.[Cl-] [1-methyl-3-octylimidazolium chloride] + OCCO
mass density [kg/m3]
Settings | 298.15 K | 308.15 K | 318.15 K
x1 = 0.0077 | 1106.07 | 1098.89 | 1091.83
x1 = 0.0589 | 1085.93 | 1078.94 | 1072.21
x1 = 0.119 | 1068.7 | 1061.98 | 1055.33
x1 = 0.2112 | 1050.79 | 1044.34 | 1037.95
x1 = 0.2985 | 1039.53 | 1033.27 | 1026.92
x1 = 0.4021 | 1030.4 | 1024.26 | 1017.91
x1 = 0.5118 | 1023.63 | 1017.52 | 1011.2
x1 = 0.6041 | 1019.49 | 1013.41 | 1007.18
x1 = 0.6999 | 1016.21 | 1010.14 | 1003.94
x1 = 0.7837 | 1013.92 | 1007.87 | 1001.74
x1 = 0.8328 | 1012.75 | 1006.75 | 1000.65
x1 = 0.9583 | 1010.27 | 1004.34 | 998.43
x1 = 1 | 1009.56 | 1003.74 | 997.92

CCCCn1cc[n+](C)c1.[Cl-] [1-butyl-3-methylimidazolium chloride] + OCCO
mass density [kg/m3]
Settings | 298.15 K | 308.15 K | 318.15 K
x1 = 0.0132 | 1108.21 | 1101.08 | 1093.97
x1 = 0.0294 | 1106.1 | 1099.21 | 1092.21
x1 = 0.0484 | 1104.02 | 1097.19 | 1090.29
x1 = 0.1028 | 1098.95 | 1092.29 | 1085.61
x1 = 0.2101 | 1092.39 | 1085.44 | 1079.22
x1 = 0.3094 | 1088.58 | 1081.93 | 1075.58
x1 = 0.4202 | 1085.81 | 1079.23 | 1072.98
x1 = 0.4947 | 1084.46 | 1078.12 | 1072
x1 = 0.5992 | 1083.24 | 1077.18 | 1071.11
x1 = 0.7117 | 1082.47 | 1076.69 | 1070.76
x1 = 0.8143 | 1082.35 | 1076.51 | 1070.75
x1 = 0.9126 | 1082.27 | 1076.49 | 1070.88
x1 = 1 | 1082.01 | 1076.51 | 1071.04

CCCCn1cc[n+](C)c1.COS(=O)(=O)[O-] [1-butyl-3-methylimidazolium methyl sulfate] + OCCO
mass density [kg/m3]
Settings | 298.15 K | 308.15 K | 318.15 K
x1 = 0.0052 | 1110.66 | 1103.5 | 1096.12
x1 = 0.0512 | 1119.06 | 1111.91 | 1104.2
x1 = 0.1106 | 1128.96 | 1121.84 | 1114.04
x1 = 0.2135 | 1145.36 | 1138.27 | 1130.75
x1 = 0.3018 | 1156.55 | 1149.5 | 1142.35
x1 = 0.4059 | 1167.63 | 1160.69 | 1153.59
x1 = 0.5066 | 1176.9 | 1170.01 | 1162.97
x1 = 0.6163 | 1185.67 | 1178.75 | 1171.77
x1 = 0.7 | 1191.66 | 1184.71 | 1177.89
x1 = 0.8408 | 1199.42 | 1192.62 | 1185.85
x1 = 0.9244 | 1202.97 | 1196.25 | 1189.52
x1 = 1 | 1205.84 | 1199.25 | 1192.7
